{"source": "patent US20070197562A1", "about": "“Remedies for prostatic hypertrophy” (Yokohama TLO Company, Ltd., priority 2004, published 2007)", "type_in_all_cases": "cell-based, human", "key": {"PrSC cells [1]": {"system": "PrSC cells", "assay": "Losartan: proliferation of TNFα-stimulated PrSC cells (Example 9)", "conditions": "5 days", "procedure": "(§1) PrSC cells were plated out on a 12-well dish at 25,000 cells per well, and cultured for 5 days in a phenol red-free F12 culture medium supplemented with 0.1% (W/V) BSA containing TNFα (1 ng/mL) and/or losartan (10 μM). Then the number of cells was counted. The group with no additive was used as the control group. Each group contained four wells (n=4)."}, "[2]": {"system": "MAPK phosphorylation in PC-3 cells", "assay": "MAPK phosphorylation in PC-3 cells cultured in PrSC conditioned media (Western blotting)", "procedure": "Stromal cells (PrSC) were cultured in a phenol red-free F12 medium containing 0.1% (W/V) BSA, to which angiotensin II (10 μM) was added alone or in combination with losartan (“Los”; 10 μM). The culture medium was collected 24 hours after the addition, and used as a conditioned medium (“0.1% BSA-CM”).\nStromal cells (PrSC) were cultured in a phenol red-free F12 medium containing 10% (V/V) FCS, to which CV (10 μM) or losartan (10 μM) was added. The culture medium was collected 24 hours after the addition, and used as a conditioned medium (“10% FCS-CM”) with no addition of angiotensin II. 10% FCS-CM with no additive was also prepared in the same manner.\n3,000,000 PrSC cells were used for each of the above 10-1 and 10-2\nPC3 cells (prostate cancer cells) were cultured for 24 hours in a phenol red-free F12 medium supplemented with 0.1% (W/V) BSA. Then the medium was replaced with one of the conditioned media prepared as described above, and the cells were collected 10 minutes later. Total cellular proteins were extracted as described below. Similar protocol was done in parallel for PC-3 cells without using any conditioned medium (“Control”).\nThe cells were washed twice with an ice-cold phosphate buffer (PBS), and lysed in 200 μL of an ice-cold cell lysis solution (lysis buffer; 20 mM of Tris (pH8.0), 137 mM of NaCl, 10% of glycerol, 0.1% of SDS, 0.5% of Nonidet P-40 (trade name), 100 mM of sodium fluoride, […] of sodium orthovanadate, 1 mM of EGTA, 2 mM of phenylmethylsulfonyl fluoride, […] of leupeptin, and […] of aprotinin). The mixture was centrifuged. Subsequently, the supernatant was collected.\nThe resulting protein sample was subjected to SDS-PAGE in the routine manner, and the MAPK phosphorylation was determined by Western blotting using an anti-phospho-MAP kinase antibody or an anti-MAP kinase antibody) (both were purchased from Cell Signaling Technology (Beverly, Mass.)) as the detecting antibody.\nFrom the obtained results, the expression levels of pMAPK and MAPK bands were determined using NIH image software. On the basis of the results, the pMAPK/MAPK ratio in each lane was calculated, and then the ratio (“pMAPK ratio”) of the obtained value of each lane to that of the lane 1 (“Control”) was calculated by taking the value of Control as 1."}, "[3]": {"system": "MAPK phosphorylation in PrSC cells", "assay": "MAPK phosphorylation in PrSC cells (Western blotting)", "procedure": "Stromal cells (PrSC) were cultured for 24 hours in a phenol red-free F12 medium containing 0.1% (W/V) BSA, to which angiotensin II (10 μM) or TNFα (1 ng/mL) was added each alone or in combination with either CV (10 μM) or losartan (“Los”; 10 μM) by replacing the medium. The cells were collected 10 minutes after the addition, and the total cellular proteins were extracted in the same manner as described in Example 10. Similarly, the cells cultured with no additive and the cells added with either CV or Los alone were processed in parallel. 3,000,000 PrSC cells were used for each sample.\nThese samples were subjected to Western blotting in the same manner as described in Example 10."}, "PrSC cells [4]": {"system": "PrSC cells", "assay": "Losartan: proliferation of PrSC cells in 10% FCS (Example 8)", "conditions": "5 days", "procedure": "as §1, with “20,000” for “25,000”, “medium” for “medium supplemented with 0.1% (W/V) BSA”, “10% (V/V) FCS and” for “TNFα (1 ng/mL) and/or”, “at various concentrations (0, 0.1, 1.0, and 10” for “(10”"}, "PrSC cells [5]": {"system": "PrSC cells", "assay": "Proliferation of PrSC cells stimulated with angiotensin II, TGFβ or EGF (cell count, Examples 1-3)", "conditions": "5 days", "procedure": "A Cell Line Derived from Normal Human Prostatic stromal cells, i.e., PrSC cells, was purchased from Sanko Junyaku Co. Ltd. (Normal Human Prostate Stromal Cells, catalogue number CC-2508), and maintained by subculturing them in a phenol red-free RPMI medium under conditions of 5% CO2 and 37° C.\nThe PrSC cells (10^4 cells) were placed in a 12-well dish, and cultured in a phenol red-free medium containing 0.1% (W/V) BSA under conditions of 5% CO2 and 37° C. for several days. Then, 1 μM or 10 μM of angiotensin II was added. To some wells, CV (10 μM; hereinafter CV was used at this concentration unless otherwise noted) was added as an AIIR blocker 4 hours before adding angiotensin II. Each group contained four wells (n=4). After culturing the cells at 5% CO2 and 37° C. for 5 days, the number of all cells in each of the wells was counted.\nThe effect of an AIIR blocker was examined in the same manner as Example 1, except for that 10 ng/mL of TGFβ was used in place of angiotensin II.\nThe effect of an AIIR blocker was examined in the same manner as Example 1, except for that 10 ng/mL of EGF was used in place of angiotensin II."}, "F-1 cells": {"system": "F-1 cells", "assay": "IL-6 secretion by primary-cultured F-1 cells (CLEIA)", "conditions": "angiotensin II 1 μM and 10 μM alone; 24 hours", "procedure": "The primary-cultured stromal cells (F-1 cells) derived from a patient with prostatic hypertrophy were prepared as described below.\nTissues obtained from the patient were placed in a 50 mL centrifuge tube containing 20 mL of a medium (RPMI 1640, GIBCO 11835-030) supplemented with 10% (V/V) FBS (filtron) and mg/mL penicillin/streptomycin (GIBCO 15140-122), and allowed to stand at 4° C. for 1 hour or longer. Subsequently, the tissues were placed in a 10-cm dish, and cut into pieces of about 1 mm square. Blood vessels and the like were removed. At that time, to remove excessive blood (if necessary), the tissues were washed by adding 20 mL of the medium and centrifuging the mixture for 5 minutes at 1,000 rpm, followed by aspiration of the supernatant. […]\nPrSC cells prepared in the same manner as Example 1, or F-1 or FT-FB cells prepared as described above were placed in a 6-well dish at 10^5 cells per well, cultured at 5% CO2 and 37° C. for 1 day (24 hours), and stimulated by the addition of TGFβ (1 ng/mL), TNFα (1 ng/mL), EGF (2.5 or 10 ng/mL), or angiotensin II (1 μM or 10 μM) (n=3). […] The culture media were collected 24 hours after adding the reagents, and the concentrations of IL-6 were determined by the CLEIA method."}, "PrSC cells [6]": {"system": "PrSC cells", "assay": "IL-6 secretion by PrSC cells (CLEIA)", "conditions": "24 hours", "procedure": "PrSC cells prepared in the same manner as Example 1, or F-1 or FT-FB cells prepared as described above were placed in a 6-well dish at 10^5 cells per well, cultured at 5% CO2 and 37° C. for 1 day (24 hours), and stimulated by the addition of TGFβ (1 ng/mL), TNFα (1 ng/mL), EGF (2.5 or 10 ng/mL), or angiotensin II (1 μM or 10 μM) (n=3). CV was added as the AIIR blocker to some wells 4 hours before adding the reagents. The culture media were collected 24 hours after adding the reagents, and the concentrations of IL-6 were determined by the CLEIA method."}, "PrSC cells [7]": {"system": "PrSC cells", "assay": "Telmisartan: proliferation of EGF- or TNFα-stimulated PrSC cells (Example 7)", "conditions": "5 days, P<0.01", "procedure": "as §1, with “containing EGF (10 ng/mL) or” for “containing”, “ng/mL), each alone or in combination with telmisartan (50” for “ng/mL) and/or losartan (10”"}, "PrSC cells [8]": {"system": "PrSC cells", "assay": "Olmesartan: proliferation of TNFα-stimulated PrSC cells (Example 6)", "conditions": "TNFα (1 ng/mL) alone; 5 days; P<0.01", "procedure": "as §1, with “20,000” for “25,000”, “alone or in combination with olmesartan (1” for “and/or losartan (10”"}}}
{"compound": "CCCCc1nc(Cl)c(CO)n1Cc1ccc(-c2ccccc2-c2nn[nH]n2)cc1", "note": "[losartan]", "values": [{"measurement": "increase in the number of cells", "setting": "PrSC cells [1]; TNFα (1 ng/mL)+losartan (10 μM), P<0.02", "value": "significantly suppressed"}, {"measurement": "cell proliferation vs control", "setting": "PrSC cells [1]; losartan (10 μM) alone", "value": "showed no change"}, {"measurement": "MAPK phosphorylation in PC-3 cells", "setting": "[2]; 0.1% BSA-CM from PrSC with angiotensin II (10 μM)+losartan (10 μM), lane 3 vs lane 2, 10 minutes", "value": "suppressed"}, {"measurement": "MAPK phosphorylation in PC-3 cells", "setting": "[2]; 10% FCS-CM from PrSC with AIIR blocker 10 μM, no angiotensin II, lanes 5 and 6 vs lane 4, 10 minutes", "value": "suppressed"}, {"measurement": "MAPK phosphorylation in PrSC cells", "setting": "[3]; AIIR blocker 10 μM added alone, lanes 8 and 9", "value": "not caused"}, {"measurement": "MAPK phosphorylation in PrSC cells", "setting": "[3]; TNFα (1 ng/mL) in combination with AIIR blocker 10 μM, lanes 6 and 7, 10 minutes", "value": "suppressed"}, {"measurement": "MAPK phosphorylation in PrSC cells", "setting": "[3]; angiotensin II (10 μM) in combination with AIIR blocker 10 μM, lanes 3 and 4, 10 minutes", "value": "suppressed"}, {"measurement": "cell proliferation, difference from control", "setting": "PrSC cells [4]; losartan 10 μM, P<0.05", "value": "significant difference"}, {"measurement": "cell proliferation vs control", "setting": "PrSC cells [4]; losartan 0.1, 1.0 and 10 μM", "value": "dose-dependently suppressed"}]}
{"compound": "angiotensin II (DRVYIHPF; Angiotensin-2; UniProt P01019 25-32, looked up) [stimulant added to cells]", "values": [{"measurement": "numbers of cells vs control", "setting": "PrSC cells [5]; angiotensin II 1 μM or 10 μM alone", "value": "concentration-dependent increase"}, {"measurement": "MAPK phosphorylation in PC-3 cells", "setting": "[2]; 0.1% BSA-CM from PrSC with angiotensin II (10 μM) alone, lane 2", "value": "caused"}, {"measurement": "MAPK phosphorylation in PrSC cells", "setting": "[3]; angiotensin II (10 μM) alone, lane 2", "value": "strongly activated"}, {"measurement": "IL-6 secretion vs control", "setting": "F-1 cells", "value": "significant increase in a concentration-dependent manner"}]}
{"compound": "EGF: growth factor used to stimulate cells (NSDSECPLSHDGYCLHDGVCMYIEALDKYACNCVVGYIGERCQYRDLKWWELR; Epidermal growth factor; UniProt P01133 971-1023, looked up)", "values": [{"measurement": "number of cells vs control", "setting": "PrSC cells [5]; EGF 10 ng/mL alone", "value": "significant increase"}, {"measurement": "IL-6 secretion vs control", "setting": "PrSC cells [6]; EGF 2.5 and 10 ng/mL alone", "value": "dose-dependent increase"}, {"measurement": "number of cells vs control", "setting": "PrSC cells [7]; EGF (10 ng/mL) alone", "value": "significantly increased"}]}
{"compound": "TGFβ", "values": [{"measurement": "number of cells, increase vs control", "setting": "PrSC cells [5]; TGFβ 10 ng/mL alone", "value": "more than 2 fold"}, {"measurement": "IL-6 secretion vs control", "setting": "PrSC cells [6]; TGFβ (1 ng/mL) alone", "value": "significantly promoted"}]}
{"compound": "CCCc1nc2c(C)cc(-c3nc4ccccc4n3C)cc2n1Cc1ccc(-c2ccccc2C(=O)O)cc1", "note": "[telmisartan, 4′-{[4-methyl-6-(1-methyl-2-benzimidazolyl)-2-propyl-1-benzimidazolyl]methyl}-2-biphenylcarboxylic acid]", "values": [{"measurement": "increase in the number of cells", "setting": "PrSC cells [7]; EGF (10 ng/mL)+telmisartan (50 μM)", "value": "significantly suppressed"}, {"measurement": "increase in the number of cells", "setting": "PrSC cells [7]; TNFα (1 ng/mL)+telmisartan (50 μM)", "value": "significantly suppressed"}]}
{"compound": "TNFα", "values": [{"measurement": "number of cells vs control", "setting": "PrSC cells [1]; TNFα (1 ng/mL) alone, P<0.05", "value": "significantly increased"}, {"measurement": "MAPK phosphorylation in PrSC cells", "setting": "[3]; TNFα (1 ng/mL) alone, lane 5", "value": "strongly activated"}, {"measurement": "number of cells vs control", "setting": "PrSC cells [8]", "value": "significantly increased"}, {"measurement": "IL-6 secretion vs control", "setting": "PrSC cells [6]; TNFα (1 ng/mL) alone", "value": "significantly promoted"}, {"measurement": "number of cells vs control", "setting": "PrSC cells [7]; TNFα (1 ng/mL) alone", "value": "significantly increased"}]}
